Assay results: ChEMBL document CHEMBL1201862, “PubChem BioAssay data set” (2004)
Calls of active or inactive are those of the source.

Tests used:
[1] = microbe, parasite or virus in culture; format: functional; conditions: Mycobacterium tuberculosis
Cytochrome P450 2C9 = Cytochrome P450 2C9 (Homo sapiens, UniProt P11712)
Cytochrome P450 2D6 = Cytochrome P450 2D6 (Homo sapiens, UniProt P10635);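 also: CYP2D6 member of a cytochrome P450 panel assay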
Caspase-3 = biological target: T1, Caspase-3 (Homo sapiens, UniProt P42574); format: functional;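 also: Dose-response selectivity test against caspase-3 for candidate inhibitors of sentrin-specific proteases (SENPs)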
T1 sequence (P42574 whole entry): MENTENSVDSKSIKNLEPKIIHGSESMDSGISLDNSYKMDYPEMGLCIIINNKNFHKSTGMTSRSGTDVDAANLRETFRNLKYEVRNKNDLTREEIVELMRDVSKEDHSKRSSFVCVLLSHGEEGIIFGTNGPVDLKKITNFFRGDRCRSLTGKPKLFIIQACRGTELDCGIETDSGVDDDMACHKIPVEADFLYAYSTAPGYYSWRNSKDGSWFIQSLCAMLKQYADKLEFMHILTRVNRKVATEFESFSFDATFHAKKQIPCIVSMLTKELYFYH

[2] = biological target: T2, Sentrin-specific protease 7 (Homo sapiens, UniProt Q9BQF6); format: functional;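 also: Luminescence-based dose-response confirmation of ultra-high-throughput screening hits, measuring inhibition of SENP7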
T2 sequence (Q9BQF6 whole entry): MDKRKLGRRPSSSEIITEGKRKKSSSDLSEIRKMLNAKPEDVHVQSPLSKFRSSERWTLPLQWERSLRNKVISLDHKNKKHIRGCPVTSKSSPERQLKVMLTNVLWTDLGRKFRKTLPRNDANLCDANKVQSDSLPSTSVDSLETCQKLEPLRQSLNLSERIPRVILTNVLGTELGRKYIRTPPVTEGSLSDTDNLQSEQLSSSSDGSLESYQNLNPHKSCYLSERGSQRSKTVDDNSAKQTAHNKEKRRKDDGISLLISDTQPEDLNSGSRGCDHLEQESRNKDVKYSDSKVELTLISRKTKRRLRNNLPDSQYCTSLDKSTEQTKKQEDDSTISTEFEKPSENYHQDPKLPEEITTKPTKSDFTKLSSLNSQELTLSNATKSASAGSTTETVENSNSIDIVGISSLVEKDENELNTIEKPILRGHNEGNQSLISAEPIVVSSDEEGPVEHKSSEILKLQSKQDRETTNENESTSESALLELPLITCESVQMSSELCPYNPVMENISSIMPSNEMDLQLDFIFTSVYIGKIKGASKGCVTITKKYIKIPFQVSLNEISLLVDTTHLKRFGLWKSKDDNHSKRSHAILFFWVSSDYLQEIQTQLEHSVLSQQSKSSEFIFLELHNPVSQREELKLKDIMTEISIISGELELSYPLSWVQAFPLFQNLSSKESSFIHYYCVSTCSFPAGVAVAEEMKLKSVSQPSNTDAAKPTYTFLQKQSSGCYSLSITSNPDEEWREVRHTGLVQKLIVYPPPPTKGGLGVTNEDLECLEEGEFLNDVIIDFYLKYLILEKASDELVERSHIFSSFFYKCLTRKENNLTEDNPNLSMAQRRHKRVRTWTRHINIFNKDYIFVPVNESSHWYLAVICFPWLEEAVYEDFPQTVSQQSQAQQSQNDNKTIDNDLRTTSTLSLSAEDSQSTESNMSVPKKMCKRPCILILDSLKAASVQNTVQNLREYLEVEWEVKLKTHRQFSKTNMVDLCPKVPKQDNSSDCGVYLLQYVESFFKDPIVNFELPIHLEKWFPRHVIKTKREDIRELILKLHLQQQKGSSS

[3] = biological target: T3, Sentrin-specific protease 6 (Homo sapiens, UniProt Q9GZR1); format: functional;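 also: Luminescence-based dose-response confirmatory assay of SENP6 inhibition, following up an ultra-high-throughput screen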
T3 sequence (Q9GZR1 whole entry): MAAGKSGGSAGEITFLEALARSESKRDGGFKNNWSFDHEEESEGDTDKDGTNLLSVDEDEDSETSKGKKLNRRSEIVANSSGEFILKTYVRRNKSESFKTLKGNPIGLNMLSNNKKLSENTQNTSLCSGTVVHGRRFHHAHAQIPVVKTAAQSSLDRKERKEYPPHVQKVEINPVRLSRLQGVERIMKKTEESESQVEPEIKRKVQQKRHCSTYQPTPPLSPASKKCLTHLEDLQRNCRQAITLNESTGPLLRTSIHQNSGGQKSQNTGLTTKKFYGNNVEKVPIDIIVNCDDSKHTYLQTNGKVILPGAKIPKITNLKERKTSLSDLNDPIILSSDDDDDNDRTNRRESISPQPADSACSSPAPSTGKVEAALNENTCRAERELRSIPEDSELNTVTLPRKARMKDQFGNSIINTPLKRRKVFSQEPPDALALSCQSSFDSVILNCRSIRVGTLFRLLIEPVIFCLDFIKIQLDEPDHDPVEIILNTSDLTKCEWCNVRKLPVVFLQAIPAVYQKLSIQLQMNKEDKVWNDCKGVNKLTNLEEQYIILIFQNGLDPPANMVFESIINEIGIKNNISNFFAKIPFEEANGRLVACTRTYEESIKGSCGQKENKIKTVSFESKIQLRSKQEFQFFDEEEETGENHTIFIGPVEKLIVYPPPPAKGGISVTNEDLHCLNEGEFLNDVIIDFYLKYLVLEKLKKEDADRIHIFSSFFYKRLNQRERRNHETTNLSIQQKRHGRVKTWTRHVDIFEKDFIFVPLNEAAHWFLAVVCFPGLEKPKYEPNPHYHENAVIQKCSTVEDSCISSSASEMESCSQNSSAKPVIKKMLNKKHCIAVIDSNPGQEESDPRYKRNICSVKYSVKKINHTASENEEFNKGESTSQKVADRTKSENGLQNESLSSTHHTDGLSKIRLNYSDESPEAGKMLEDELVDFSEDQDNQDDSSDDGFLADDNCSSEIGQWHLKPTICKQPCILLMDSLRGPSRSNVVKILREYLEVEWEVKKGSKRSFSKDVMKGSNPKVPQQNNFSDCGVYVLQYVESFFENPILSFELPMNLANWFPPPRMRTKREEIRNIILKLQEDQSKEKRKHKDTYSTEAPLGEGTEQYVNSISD

[4] = biological target: T4, Sentrin-specific protease 8 (Homo sapiens, UniProt Q96LD8); format: functional;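 also: luminescence read-out of SENP8 inhibition, dose-response confirmation following an ultra-high-throughput screen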
T4 sequence (Q96LD8 whole entry): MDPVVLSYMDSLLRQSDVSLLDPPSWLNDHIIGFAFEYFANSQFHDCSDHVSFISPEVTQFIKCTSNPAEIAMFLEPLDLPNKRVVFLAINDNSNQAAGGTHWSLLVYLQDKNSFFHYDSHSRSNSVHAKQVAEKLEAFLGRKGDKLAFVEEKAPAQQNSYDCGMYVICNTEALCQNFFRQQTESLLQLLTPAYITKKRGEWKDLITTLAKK

[5] = tested on: Streptococcus sp. 'group A'; assay: Streptococcus pyogenes SK(-)GAS viability under kanamycin – luminescence, BacTiterGlo, confirmation, counter-screen for streptokinase expression inhibitor project, dose response (AID 1900); format: functional, organism-based
Streptokinase A = biological target: T5, Streptokinase A (Streptococcus pyogenes serotype M1, UniProt P10520); assay: viability-normalized secreted streptokinase activity reduction – plasminogen activation absorbance, OD405, dose response (AID 1914); format: functional, Streptococcus pyogenes M1 GAS;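 also: secreted streptokinase activity via plasminogen activation per viability signal from cell pellet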
T5 sequence (P10520 whole entry): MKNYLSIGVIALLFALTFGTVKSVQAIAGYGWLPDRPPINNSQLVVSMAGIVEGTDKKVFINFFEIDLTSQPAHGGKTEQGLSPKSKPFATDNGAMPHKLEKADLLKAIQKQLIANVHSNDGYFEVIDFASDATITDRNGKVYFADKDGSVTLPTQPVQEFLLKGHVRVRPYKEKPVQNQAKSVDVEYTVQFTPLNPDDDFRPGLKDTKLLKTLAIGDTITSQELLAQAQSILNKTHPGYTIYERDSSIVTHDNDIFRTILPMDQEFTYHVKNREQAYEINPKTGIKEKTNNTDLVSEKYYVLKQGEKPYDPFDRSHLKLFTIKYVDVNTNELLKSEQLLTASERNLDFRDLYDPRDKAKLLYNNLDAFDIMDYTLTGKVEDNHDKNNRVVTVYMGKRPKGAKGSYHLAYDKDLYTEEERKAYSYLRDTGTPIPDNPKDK

Streptococcus = assay: GAS UMAA2166 growth inhibition – luminescence, BacTiterGlo, counter-screen for streptokinase expression inhibitor project, dose response (AID 1915); format: functional, organism-based;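 also: potency for reduction of bacterial viability or growth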
[6] = biological target: T6, Heat shock factor protein 1 (Mus musculus, UniProt P38532); assay: enhancement of HSF1-driven luciferase signal – cell-based, NIH3T3, luminescence, dose retest, confirmation (AID 435004); format: functional;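 also: stress induced by proteasome inhibitor MG132 added 30 min after compound; luciferase reporter driven by HSF1 response element in NIH3T3 cells; actives raise luminescence as potentiators of the MG132 stress response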
T6 sequence (P38532 whole entry): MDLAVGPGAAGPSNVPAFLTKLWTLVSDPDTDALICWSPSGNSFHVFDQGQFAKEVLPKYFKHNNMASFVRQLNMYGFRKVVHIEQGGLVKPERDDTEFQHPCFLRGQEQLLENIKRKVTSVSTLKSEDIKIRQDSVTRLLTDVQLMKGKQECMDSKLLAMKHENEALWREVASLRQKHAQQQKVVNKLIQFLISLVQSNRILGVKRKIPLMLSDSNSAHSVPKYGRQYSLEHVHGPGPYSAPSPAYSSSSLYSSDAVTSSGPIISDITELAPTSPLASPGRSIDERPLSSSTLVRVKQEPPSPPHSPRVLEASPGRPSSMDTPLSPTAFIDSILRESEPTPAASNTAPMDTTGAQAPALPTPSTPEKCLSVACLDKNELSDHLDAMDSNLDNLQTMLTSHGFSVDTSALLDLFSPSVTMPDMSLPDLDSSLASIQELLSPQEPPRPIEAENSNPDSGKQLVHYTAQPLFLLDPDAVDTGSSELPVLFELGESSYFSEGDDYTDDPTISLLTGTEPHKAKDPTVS

[7] = Luminescence Cell-Based Dose Retest to Confirm Inhibitors of Cancer Stem Cells. [Related pubchem assays (depositor defined):AID2717, AID2721]; format: functional; conditions: Homo sapiens
INS1 = assay: INS-1E survival protection against cytokine death – cell-based, luminescence, retest, dose response (AID 449756); format: functional; conditions: Rattus norvegicus;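 also: cell death triggered by IL-1 beta plus TNF-alpha plus IFN-gamma mixture; protective hits raise ATP signal compared with cytokine alone wells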

Sequence of Cytochrome P450 2D6 (P10635 whole entry): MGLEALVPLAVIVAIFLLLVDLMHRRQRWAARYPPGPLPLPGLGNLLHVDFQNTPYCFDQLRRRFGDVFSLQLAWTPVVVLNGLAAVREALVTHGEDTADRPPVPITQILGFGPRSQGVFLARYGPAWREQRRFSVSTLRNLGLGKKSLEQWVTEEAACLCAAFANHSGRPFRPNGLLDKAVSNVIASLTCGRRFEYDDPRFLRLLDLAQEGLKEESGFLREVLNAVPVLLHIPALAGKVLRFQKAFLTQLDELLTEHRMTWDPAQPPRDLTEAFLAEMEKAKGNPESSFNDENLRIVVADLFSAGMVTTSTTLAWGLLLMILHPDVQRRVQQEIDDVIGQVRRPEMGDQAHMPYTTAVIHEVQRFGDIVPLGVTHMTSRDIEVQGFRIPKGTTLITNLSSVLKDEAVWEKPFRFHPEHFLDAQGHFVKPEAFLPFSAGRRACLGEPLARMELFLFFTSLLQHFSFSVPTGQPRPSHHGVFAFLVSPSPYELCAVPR
Sequence of Cytochrome P450 2C9 (P11712 whole entry): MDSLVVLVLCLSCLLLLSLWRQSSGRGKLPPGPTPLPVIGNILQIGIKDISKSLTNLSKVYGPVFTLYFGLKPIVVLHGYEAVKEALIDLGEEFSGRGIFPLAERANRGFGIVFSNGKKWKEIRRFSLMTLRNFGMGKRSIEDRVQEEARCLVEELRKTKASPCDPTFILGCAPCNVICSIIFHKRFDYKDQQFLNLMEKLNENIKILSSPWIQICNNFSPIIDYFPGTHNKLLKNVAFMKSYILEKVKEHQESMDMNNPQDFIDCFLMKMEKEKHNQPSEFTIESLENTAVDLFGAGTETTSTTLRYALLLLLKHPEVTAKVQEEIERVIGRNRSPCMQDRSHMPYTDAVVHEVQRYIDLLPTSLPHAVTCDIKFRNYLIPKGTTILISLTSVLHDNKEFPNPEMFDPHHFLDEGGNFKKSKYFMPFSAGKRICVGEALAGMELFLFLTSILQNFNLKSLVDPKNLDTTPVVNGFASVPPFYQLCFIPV

## O=S1(=O)N(CCN2CC=C(c3c[nH]c4cc(F)ccc34)CC2)c2cccc3c2N1CCC3
[1]
  CC50: > 40 µM (active)
Cytochrome P450 2C9
  AC50: 25.1 µM (inconclusive)

## O=C(c1ccco1)N1CCC2(CC1)CN(Cc1ccncc1)C2
Cytochrome P450 2D6
  AC50: 12.6 µM (inconclusive)

## O=C(CCN1C(=O)c2ccccc2C1=O)NC(=S)Nc1cccc(Cl)c1
Cytochrome P450 2D6
  AC50: 0.0447 µM (inconclusive)

## COc1cccc([C@@H]2Oc3ccc(OC)cc3C(=O)[C@H]2O)c1
Cytochrome P450 2D6
  AC50: 3.16 µM (inconclusive)

## CN(CC(=O)Nc1ccc(Cl)cc1)C(=O)CNC(=O)c1ccc2ccccc2c1
Caspase-3
  IC50: 26.4 µM (active)
[2]
  IC50: 11.1 µM (active)
[3]
  IC50: > 100 µM (inactive)
[4]
  IC50: > 100 µM (inactive)

## CCn1c(-c2ccccc2Cl)nn(CC(=O)Nc2cc(Cl)ccc2Cl)c1=S
Cytochrome P450 2D6
  AC50: 25.1 µM (inconclusive)
Cytochrome P450 2C9
  AC50: 25.1 µM (inconclusive)

## Clc1ccccc1-c1nccc(NCc2ccccc2)n1
Cytochrome P450 2D6
  AC50: 39.8 µM (inconclusive)

## O=c1c2c3c(sc2nc(N2CCNCC2)n1-c1cccc(Cl)c1)CCCCC3
[1]
  CC50: 13.6 µM (active)

## O=C1c2cccc3c([N+](=O)[O-])ccc(c23)C(=O)N1O
[5]
  EC50: 0.999 µM (active)
Streptokinase A
  EC50: > 150 µM (not active)
[1]
  CC50: 17.8 µM (active)
Streptococcus
  EC50: 15.8 µM (active)
[6]
  EC50: 244 µM (active)

## CCC(=O)Nc1ccc(N2CCN(CC)CC2)c(Cl)c1
Cytochrome P450 2D6
  AC50: 0.0447 µM (inconclusive)

## Cc1nc2ccc(NC(=O)c3cc(Cl)ccn3)cc2s1
Caspase-3
  IC50: 3.79 µM (active)
[2]
  IC50: 3.62 µM (active)
[3]
  IC50: 12.9 µM (active)
[4]
  IC50: 86.4 µM (active)

## O=C(Nc1ccc(N2CCN(C(=O)c3ccco3)CC2)cc1)C(c1ccccc1)c1ccccc1
[1]
  CC50: > 40 µM (active)

## O=C(COC(=O)c1ccc([N+](=O)[O-])s1)NC(=O)NCc1ccccc1
Caspase-3
  IC50: 13.7 µM (active)
[2]
  IC50: 8.47 µM (active)
[3]
  IC50: 4.59 µM (active)
[4]
  IC50: 4.28 µM (active)

## Fc1ccccc1SCc1nnc(-c2ccccc2Br)o1
Caspase-3
  IC50: 17.1 µM (active)
[2]
  IC50: 6.47 µM (active)
[3]
  IC50: 12.1 µM (active)
[4]
  IC50: 14.7 µM (active)

## Clc1nc(-c2ccccn2)nc2scc(-c3ccccc3)c12
Caspase-3
  IC50: 7.37 µM (active)
[2]
  IC50: 3.74 µM (active)
[3]
  IC50: 6.7 µM (active)
[4]
  IC50: 7.79 µM (active)

## CN(C)c1ccc(-c2cncnc2NCc2cccnc2)cc1
Cytochrome P450 2D6
  AC50: 12.6 µM (inconclusive)
Cytochrome P450 2C9
  AC50: 0.501 µM (inconclusive)

## Oc1ccc(/C=C/c2ccnc3ccccc23)cc1
Caspase-3
  IC50: 34.5 µM (active)
[2]
  IC50: 9.49 µM (active)
[3]
  IC50: > 100 µM (inactive)
[4]
  IC50: > 100 µM (inactive)

## CCCC[C@@H](CN[C@H](C)CNC)NCC1CCC(C(C)(C)C)CC1 (some centres undefined)
[1]
  CC50: 12.7 µM (active)
[7]
  AC50: 6.55 µM (active)
INS1
  AC50: 6.4 µM (active)

## COc1ccccc1N1CCN(/N=C/c2ccc([N+](=O)[O-])cc2)CC1
Caspase-3
  IC50: 2.68 µM (active)
[2]
  IC50: 2.17 µM (active)
[3]
  IC50: 3.64 µM (active)
[4]
  IC50: > 100 µM (inactive)
